According to PubChem BioAssay (NCI):
Where “and” joins values, the source holds several entries; their conditions need not be identical. Equal values may be shown once.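 Test compounds were applied to cells in 96-well plates for 48 hours at 5 doses. Here, GI50 denotes the concentration required for 50% inhibition of growth. TGI marks complete inhibition of growth.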

How the values were obtained:
Assay in all cases: inhibition of tumour cell growth, NCI panel, 48 h
T-47D breast = system: T-47D breast
KM20L2 colon = system: KM20L2 colon
SNB-78 CNS = system: SNB-78 CNS
DMS 114 small cell lung = system: DMS 114 small cell lung
LXFL 529 NSCLC = system: LXFL 529 NSCLC
HOP-18 NSCLC = system: HOP-18 NSCLC
RXF-631 renal = system: RXF-631 renal
MDA-N = system: MDA-N
XF 498 CNS = system: XF 498 CNS

Row | Compound | GI50 (T-47D breast) [µM] | TGI (T-47D breast) [µM] | TGI (KM20L2 colon) [µM] | TGI (SNB-78 CNS) | TGI (LXFL 529 NSCLC) [µM] | further results
1 | Nc1ccc(-c2ccc3ncc4ccc(=O)n(-c5cccc(C(F)(F)F)c5)c4c3c2)cn1 | < 0.01 | < 0.01 | – | – | – | –
2 | COc1ccc2c(c1)O/C(=C\c1cccc(OCC(=O)Nc3nc(C)c(C)s3)c1)C2=O | 8.76 | > 100 | – | – | – | –
3 | C1CC2=C(C1)C1=S(S2)SC2=C1CCC2 | – | – | > 100 | > 100 µM | > 100 | TGI (DMS 114 small cell lung): > 100 µM; TGI (HOP-18 NSCLC): > 100 µM; TGI (RXF-631 renal): > 100 µM
4 | CCN(CC)c1nc(NC2CCCCC2)c2nc(N(CC)CC)nc(NC3CCCCC3)c2n1 | – | > 100 | – | – | – | TGI (MDA-N): > 100 µM
5 | COc1cc(-c2nccc3cc4c(cc23)OCO4)cc(OC)c1OC | 5.25 | > 100 | – | – | – | –
6 | O=c1[nH]c(=O)n(C2CC(O)C(CO)O2)cc1COCC(F)(F)F (stereo unspecified) | – | – | > 100 | > 100 µM | > 100 | TGI (XF 498 CNS): > 100 µM; TGI (DMS 114 small cell lung): > 100 µM; TGI (RXF-631 renal): > 100 µM
7 | NCCOc1ncccc1/C=C1\c2ccccc2-c2ccc([N+](=O)[O-])cc21 | 0.0283 | 0.305 | – | – | – | –
8 | CN1CCN(CCCOc2cccc3nc(Nc4ccc(F)c(F)c4)ccc23)CC1 | 3.39 | 9.26 | – | – | – | –
9 | Cn1cncc1-c1c(F)cncc1NC(=O)c1c(N)nn2cc(F)cnc12 | 4.32 | > 100 | – | – | – | –
10 | CC(C)C(=S)N(C)O | – | – | > 100 | > 100 µM | > 100 | TGI (DMS 114 small cell lung): 19.3 µM; TGI (RXF-631 renal): > 100 µM
11 | CCOC(=O)C#Cc1c(C(=O)OCC)nnn1[C@@H]1O[C@H](CO)[C@H]2OC3(CCCCC3)O[C@H]21 | 2.21 | 5.47 | – | – | – | –
12 | CCN(CC)c1ccc(N=Nc2ccc(-c3nc4cccn(C)c-4n3)cc2)cc1 | – | – | 27.8 | 77.2 µM | 15.8 | TGI (XF 498 CNS): 28.1 µM; TGI (DMS 114 small cell lung): 13 µM; TGI (HOP-18 NSCLC): 89.9 µM; TGI (RXF-631 renal): 33.7 µM
13 | OC(COc1ccccc1)CN1CCCCC1 (stereo unspecified) | – | > 100 | – | – | – | TGI (MDA-N): > 100 µM
14 | O=C(Oc1ccccc1)C(Br)C(Br)c1ccccc1 (stereo unspecified) | 2.62 | 6.23 | – | – | – | –
15 | CCc1nn2ncccc2c1-c1ccnc(NC2CC2)n1 | > 25 | > 25 | – | – | – | –
16 | COc1cc(Nc2ncnc(Nc3ccc4c(n3)NC(=O)C(C)(C)O4)n2)cc(OC)c1OC | 1.18 | > 100 | – | – | – | –
17 | Nc1nc2c(ccc3ccccc32)s1 | 95.5 | > 100 | – | – | – | –
18 | CNCCCNc1c2ccccc2nc2cccc([N+](=O)[O-])c12 | – | 0.0139 | 0.0458 | 0.0124 µM and 0.0131 µM | 0.0288 | TGI (XF 498 CNS): 0.00724 µM; TGI (DMS 114 small cell lung): 0.0108 µM; TGI (MDA-N): 0.00309 µM
19 | CC1=C(C(=O)Nc2ccccc2)C(c2cc(Cl)cc(Cl)c2)C(C(=O)Nc2ccccc2)=C(C)N1 | – | – | 35.6 | > 100 µM | 17.9 | TGI (XF 498 CNS): 27.5 µM; TGI (DMS 114 small cell lung): 18.1 µM; TGI (HOP-18 NSCLC): 26.6 µM; TGI (RXF-631 renal): 63.5 µM

Row | Compound | GI50 (T-47D breast) [µM] | TGI (T-47D breast) [µM] | TGI (KM20L2 colon) [µM] | TGI (SNB-78 CNS) | TGI (LXFL 529 NSCLC) [µM] | further results
20 | Clc1ccc(OCc2nnc3n2N=C(c2ccccc2)CS3)c(Cl)c1 | – | – | – | > 100 µM | > 100 | TGI (XF 498 CNS): > 100 µM; TGI (DMS 114 small cell lung): > 100 µM
21 | Cc1c(C)c2c(c(C)c1OCC(=O)O)CC[C@@](C)(CCC[C@@H](C)CCC[C@@H](C)CCCC(C)C)O2 | 51.7 | 171 | – | – | – | –
22 | Cc1cn2c(/C=N/N=C(N)N)c(-c3ccncc3)nc2s1 | 16.2 | 31.6 | – | – | – | –
23 | CCOC(=O)C1=C(C(=O)OCC)C2(c3ccccc3)N(O1)c1ccccc1C2(C)C (stereo unspecified) | – | – | > 100 | > 100 µM | > 100 | TGI (HOP-18 NSCLC): 83.3 µM
24 | O=C1C=C(Nc2ccc(S(=O)(=O)Nc3ncccn3)cc2)c2ccccc2C1=O | – | – | 72.9 | > 100 µM | 56.6 | TGI (HOP-18 NSCLC): 82.6 µM; TGI (RXF-631 renal): 47.3 µM
25 | CC(C)(C)c1nc(-c2cccc(NS(=O)(=O)c3c(F)cccc3F)c2F)c(-c2ccnc(N)n2)s1 | 25.9 | 99 | – | – | – | –
26 | COC(=O)N/N=C(\C)C(CN(C)C)C(c1ccccc1)c1c(O)c2ccccc2oc1=O (stereo unspecified) | – | – | > 100 | > 100 µM | > 100 | TGI (XF 498 CNS): > 100 µM; TGI (DMS 114 small cell lung): > 100 µM
27 | C[C@H](NC(=O)c1c(C(F)F)nn(C)c1Oc1cccc(C(F)(F)F)c1)c1ccc(C(=O)O)cc1 | > 100 | > 100 | – | – | – | –
28 | C/C(O)=C(\N=O)C(=O)NCc1ccccc1 | – | – | > 100 | > 100 µM | > 100 | TGI (DMS 114 small cell lung): > 100 µM; TGI (HOP-18 NSCLC): > 100 µM; TGI (RXF-631 renal): > 100 µM
29 | COc1cccc(NC(=O)c2sc3nc4c(cc3c2N)C(O)CCC4)c1 (stereo unspecified) | 0.727 | > 100 | – | – | – | –
30 | CCC[CH2][Sn]([CH2]CCC)([O]C(=O)c1cccc(F)c1F)[O]C(=O)c1cccc(F)c1F | – | – | 3.06 | – | 0.526 | GI50 (KM20L2 colon): 1.63 µM; GI50 (XF 498 CNS): 1.61 µM; TGI (XF 498 CNS): 2.97 µM; GI50 (DMS 114 small cell lung): 0.291 µM; GI50 (LXFL 529 NSCLC): 0.189 µM; GI50 (HOP-18 NSCLC): 2.17 µM; TGI (HOP-18 NSCLC): 3.61 µM
31 | CCCCCCCCCCOC(=O)c1cc[n+](C)cc1 | – | – | – | 34.4 µM | 29.8 | TGI (XF 498 CNS): 31.4 µM; TGI (DMS 114 small cell lung): 33.1 µM; TGI (HOP-18 NSCLC): > 100 µM
32 | c1ccc(C2CC(c3ccc4ccccc4c3)=Nc3ccccc3S2)cc1 (stereo unspecified) | – | – | 33.1 | 37.3 µM | 27.6 | TGI (XF 498 CNS): 31.2 µM; TGI (HOP-18 NSCLC): 58.5 µM; TGI (RXF-631 renal): 91.1 µM
33 | N#C/C(=C\c1ccccc1)C(NO)Nc1ccccc1 (stereo unspecified) | – | – | > 100 | > 100 µM | > 100 | TGI (HOP-18 NSCLC): > 100 µM
34 | CC1=C(C#N)C(/C=C(\Cl)c2ccc(F)cc2)C(C#N)=C(C)N1 | > 100 | > 100 | – | – | – | –
35 | CCN(CC)c1ccc(/C=N/NC(=O)CSc2nc3ccccc3c(=O)n2Cc2ccc(S(N)(=O)=O)cc2)c(O)c1 | 0.925 | > 100 | – | – | – | –
36 | Cc1ccccc1N=Nc1c(-c2ccccc2)nn(C(=O)CC(=O)Nc2cccc(Cl)c2)c1-c1ccccc1 | – | – | > 31.6 | > 31.6 µM | > 31.6 | TGI (XF 498 CNS): 74.6 µM; TGI (DMS 114 small cell lung): 22.1 µM; TGI (HOP-18 NSCLC): > 31.6 µM
37 | NC(CSC(c1ccccc1)(c1ccccc1)c1ccc(F)cc1)C(=O)O (stereo unspecified) | 0.365 | 25.5 | – | – | – | –
38 | CCc1nc2cc(/C=C/C(=O)NO)ccc2c(=O)n1CCc1ccc(OC)cc1 | 1.57 | 7.13 | – | – | – | –
